Laboratory results: patent US20190160152A1 (OPKO BIOLOGICS LTD., priority 2016, published 2019)

Columns and labels:
[1] = ob/ob mouse model Study 3: MOD-6031 vs PEG30-Fmoc-OXM vs PEG30-EMCS-OXM; type: in vivo, male ob/ob mice
Description: Forty-two male ob/ob mice (7 weeks of age, Charles River, Italy) were acclimatized to the facility (10 days) followed by handling protocol whereby animals were handled as if to be dosed but were actually not weighed or dosed. Subsequently, animals underwent baseline period for 1 week in which each animal have been dosed twice by the subcutaneous route with PEG30-SH in volume of 20 ml/kg. Body weight, food and water intake were recorded daily, and samples were taken for non-fasting and fasting glucose measurements and non-fasting and fasting insulin measurements. Animals were subsequently allocated into three treatment, control and pair-fed groups (group A, N=10, groups B-E, N=8) based on plasma glucose, body weight and daily food and water intake. […] It was given the daily food ration equal to that eaten by its paired counterpart in group B the previous day. As such, animals in Group E will be one day out of phase with Group B in all study procedures and measurements. During the study, animals were dosed every four days (days: 1, 5, 9, 13, 17, 21, 25 and 29) as describes in table 3. […] Several procedures and sampling have been performed: non-fasting glucose on days 1, 6, 14, 22 and 29, fasting glucose on days 10, 18 and 26. On days 2 and 30 fasting glucose samples have been taken as part of an OGTT procedure, in which insulin was measured in parallel to glucose. Terminal samples on day 33 were analyzed for cholesterol, triglycerides and fructosamine.

[2] = IP glucose tolerance test (IPGTT model); type: in vivo, C57BL/6 male mice
[3] = ob/ob mouse model Study 1: PEG30-S-MAL-FMS-OXM variants at 2000 nmol/kg; type: in vivo, male ob/ob mice; conditions: 2000 nmol/kg sc, days 1, 5, 9, 13 and 16
Description: Terminal samples on day 19 were analyzed for cholesterol.

[4] = Syringability analysis (Instron, glide force); type: physicochemical; conditions: 25 Ga Needle; 9 in/min (16 sec)
Description: Syringeability was tested using an Instron instrument, model 5942. […] […] For each needle size, two speed rates were measured: 4.8 in/min and 9 in/min, which correspond to injection speeds of 1 ml per 30 sec and 16 sec, respectively.
In one case, acceptance criteria for syringability was set at <10 N (glide force). The results of syringability for two different formulations of an acetate based buffer and using three different gauge needles is presented in Table 29 below.

[5] = 6000 nmol/kg sc every four days
[6] = 6000 nmol/kg, glucose 2 g/kg po
[7] = blood glucose, 100 nmol/kg peptide content IP 15 min prior to glucose 1.5 gr/kg IP
[8] = control PEG-SH, 100 nmol/kg peptide content IP

PEG30-Fmoc-OXM (HSQGTFTSDYSKYLDSRRAQDFVQWLMNTKRNRNNIA; Oxyntomodulin PEG30 via Fmoc linker; UniProt P01275 53-89, looked up)
Final reduction changes in body weight (on day 33) compared to control (PEG-SH) [1, 5]: 5.1% | fasting glucose (in words) [1, 5]: significant improvement | reduction change in body weight compared to its pair-fed group ([1]; 6000 nmol/kg sc every four days, insignificant): 2.6% | terminal plasma lipidic profiles and fructosamine (in words) ([1]; 6000 nmol/kg, day 33): significant reduction | glucose profile, Day 30 OGTT (in words) [1, 6]: significant improved glucose profile | glucose tolerance, day 2 OGTT (in words) [1, 6]: significantly improved glucose tolerance

MOD-6030: heterogeneous mixture of PEG-S-MAL-FMS-OXM conjugate composed of three variants (N-terminal, Lys12 and Lys30) (HSQGTFTSDYSKYLDSRRAQDFVQWLMNTKRNRNNIA; Oxyntomodulin PEG30-S-MAL-FMS, mixed N-term/Lys12/Lys30; UniProt P01275 53-89, looked up)
AUC (0-180) [2, 7]: 13541 | AUC (−60-180) [2, 7]: 18200 | % AUC from control, AUC (0-180) [2, 8]: 60.1% | % AUC from control, AUC (−60-180) [2, 8]: 67.8% | final reduction of body weight (on day 18) compared to vehicle (PEG-SH) group [3]: 4.7%

certolizumab pegol [Cimzia]
Break Loose Force [4]: 6.28 N | Glide Force [4]: 27.94 N
